Results published in US20160184254A1, “COMPOSITIONS COMPRISING VITAMIN K DERIVATIVES AND SALTS” (KAPPA BIOSCIENCE AS, priority 2013, published 2016).

Legend:
[1] = Light stability in ethyl acetate (HPLC % area); assay type: physicochemical; conditions: for After 19 hrs % / Initial %: clear glass vial; for After 19 hrs %: 19 hours ordinary room lighting, HPLC % area; for Initial %: before light exposure, HPLC % area of total peak area
Protocol: (§1) The light stability of MK-7 was compared to compounds of the invention as hereinbefore described. Compounds were dissolved separately in ethyl acetate or MCT oil, transferred to glass vial (clear glass) and placed on the bench in a well lit laboratory (ordinary room lighting). The samples were analyzed after 19 hours of light exposure or more.
(§2) The samples were analyzed by HPLC using aHPLC_KB_001, with the HPLC conditions detailed below. • HPLC-DAD high pressure system: Agilent, LC system 1100 series • Analytical column: Supelcosil C-18, 4.6×250 mm, 5 μm • Column temperature: 40° C. • Flow rate: 1 mL/min • Injection volume: 8 μL • UV-detection: 270 nm/340 nm • Run time: 20 min • Eluent system: 50% Solvent C: MeOH/Water with 0.1% v/v acetic acid (95/5 v/v) 50% Solvent D: Isopropanol
(§3) The content of MK-7 and the MK-7 derivative in the samples have been quantified as % area of the total peak area in the chromatogram. […] Note that examples 2a and 2b show the synergistic behaviour discussed after table 2.

[2] = Calcium salt composition: recovery from tablet after direct compression; assay type: physicochemical; conditions: for compatibility with calcium in the formulation process: formulated together with calcium salts; for recovered from the tablet after formulation: magnesium stearate, MCC, compared to amount pre-formulation
Protocol: We combined 47 mg of a 0.19 wt % formulation of the MK-7 derivative of Example 16 (diacetate) in microcrystalline cellulose MCC with 645 mg of 90 wt % calcium carbonate, […] of magnesium stearate and 745 mg of MCC and formulated tablets of this blend using direct compression.
After formulation we recovered the MK-7 derivative from the tablet. We recovered 88 wt % of the derivative from the tablet.
The same experiment was repeated using identical conditions other than the use of MK-7 rather than the MK-7 derivative. We recovered 77.6 wt % of MK7 from the tablet compared to the amount pre-formulation. We show therefore that the loss of MK7 during tableting process is 23%.

[3] = In vivo testing in rats: MK-7 in plasma after oral gavage; design: species or system male Sprague Dawley Rats
Protocol: Male Rats aged 6 to 8 weeks and weighing around 180 to 225 g. Animals were fasted overnight with free access to water. Animals were administered test substance by oral gavage with a dose of 100 μg/kg body weight (in recommended formulation and dose volume). Blood samples (150-200 μl) were collected at various time points during the next 48 hours post dose. To determine the bioavailability of different formulations containing MK-7 in male e Sprague Dawley Rats through gavage. Formulations were both dissolved in sunflower oil. Approximately 0.4 ml/animal (depending on the weight of the animal) via oral gavage (100 μg/kg body weight). There were 6 animals per formulation. Blood samples were collected from the tail vein of each animal and transferred into lithium heparin tubes at 2 and 12 hours post dose. Quantification of analyte in plasma was determined by LC-MS-MS analysis: Analyte: MK-7 in plasma. The data are mean of four measurements (low and high values are not included).

[4] = Light stability in MCT oil (HPLC % area); assay type: physicochemical; conditions: 24 hours light exposure
Protocol: as §1, §2, §3

[5] = tablet with calcium carbonate, direct compression

Row | SMILES | After 19 hrs % ([1]; in ethyl acetate) | Initial % ([1]; in ethyl acetate) | compatibility with calcium in the formulation process [2] | recovered from the tablet after formulation [2, 5] | serum level 12 hours after administration compared with MK-7 [3] | light degradation in ethyl acetate compared with MCT oil ([1]; in ethyl acetate) | degradation after 19 hours of light exposure ([1]; in solution (ethyl acetate, Table 1), 19 hours light exposure) | reduction in the amount present after tabletting ([2]; directly compressed with excipients such as calcium or magnesium) | compatibility with calcium in the formulation process ([2]; listed as MK7) | loss during tableting process [2, 5] | degradation after 24 hours of light exposure [4]
1 | CC(=O)Oc1c(C)c(C/C=C(\C)CC/C=C(\C)CC/C=C(\C)CC/C=C(\C)CC/C=C(\C)CC/C=C(\C)CCC=C(C)C)c(OC(C)=O)c2ccccc12 [Example 16] | 92.7% | 93.1% | more compatible with calcium than MK7 | 88 wt % |  |  |  |  |  |  | 
2 | CCC(=O)Oc1c(C)c(C/C=C(\C)CC/C=C(\C)CC/C=C(\C)CC/C=C(\C)CC/C=C(\C)CC/C=C(\C)CCC=C(C)C)c(OC(=O)CC)c2ccccc12 [Example 7, 2-((2E,6E,10E,14E,18E,22E)-3,7,11,15,19,23,27-heptamethyloctacosa-2,6,10,14,18,22,26-heptaen-1-yl)-3-methylnaphthalene-1,4-diyl dipropionate] |  |  |  |  | the same |  |  |  |  |  | 
3 | CC(C)=CCC/C(C)=C/CC/C(C)=C/CC/C(C)=C/CC/C(C)=C/CC/C(C)=C/CC/C(C)=C/CC1=C(C)C(=O)c2ccccc2C1=O [MK-7, 2-((2E,6E,10E,14E,18E,22E)-3,7,11,15,19,23,27-Heptamethyloctacosa-2,6,10,14,18,22,26-heptaen-1-yl)-3-methylnaphthalene-1,4-dione] | 53.7% | 99.4% | degrades rapidly | 77.6 wt % |  | degrades even more rapidly | approximately 50% | up to 30% | degrades in the formulation process together with calcium | 23% | approximately 70%
4 | CC(C)=CCC/C(C)=C/CC/C(C)=C/CC/C(C)=C/CC/C(C)=C/CC/C(C)=C/CC/C(C)=C/Cc1c(C)c(OC(=O)c2ccccc2)c2ccccc2c1OC(=O)c1ccccc1 [Example 1, 2-((2E,6E,10E,14E,18E,22E)-3,7,11,15,19,23,27-heptamethyl-octacosa-2,6,10,14,18,22,26-heptaen-1-yl)-3-methylnaphthalene-1,4-diyl dibenzoate] | 95.4% | 98.5% |  |  |  |  |  |  |  |  | 
